Measured values taken from patent US20150272874A1, “PULMONARY DISEASE-SPECIFIC THERAPEUTIC AGENT” (CARDIO INCORPORATED, priority 2012, published 2015).
Where “and” joins values, the source holds several entries; their conditions need not be identical. Equal entries are not always repeated. Structures can show the parent of a compound that is named as a salt.

Experiments:
[1] = system: MCT-induced mild pulmonary hypertension model; conditions: mild disease model; Am J Respir Crit Care Med 169: 34-38-2004; cited from earlier work
[2] = system: monocrotaline (MCT) pulmonary hypertension models; assay: Pharmacological Effect Test 5: combined effect of ozagrel hydrochloride with Compounds 3 and 7, survival; assay type: in vivo, Slc;Wistar female rats; conditions: oral twice a day until Day 42; Compound 3 or 7 0.1 mg/kg, ozagrel hydrochloride 100 mg/kg, alone or combined
Protocol: After Slc;Wistar female rats (5 weeks old) were anesthetized with inhaled isoflurane, an aqueous monocrotaline (MCT) solution was subcutaneously administered into the dorsal region of each rat at a dose of 60 mg/kg (an injection volume of 3 mL/Kg) using a disposable syringe and a 27G disposable injection needle to prepare pulmonary hypertension models.
From immediately after the MCT administration until Day 42, test substances were repeatedly administered orally twice a day as shown in the following table.
The test substances were suspended in 0.5% aqueous CMC-Na solutions, and the aqueous solutions were orally administered repeatedly at a dose of 5 mL/kg.

[3] = Maximum tolerated oral dose without blood-pressure-lowering effect; assay type: in vivo
[4] = cited from earlier work
[5] = Pharmacological Effect Test 3: Compound 1 content of the lungs (LC/MS/MS); assay type: in vivo, Slc;Wistar male rats; conditions: for Concentration of Compound 1 in the tissue: lung, individual animals, 1 mg/kg
Protocol: Further, the Compound 1 contents of the lungs in Groups 3 and 4 were measured.
A four-fold amount of a mixture of distilled water and ethanol relative to the lung weight was added to form a homogenate. Acetonitrile was added to a part of the homogenate and the resulting mixture was stirred. The centrifuged supernatant was collected and concentrated. After the concentrate was dissolved in a solvent, LC/MS/MS measurement was performed under the same conditions as in Preparation Test Example 2 to determine Compound 1 content of the lungs.

[6] = system: Normal human newborn foreskin dermal fibroblasts (Fibrocell NHDF (NB)); assay: Pharmacological Effect Test 6: production of cytokines (ELISA) and PGs (EIA); assay type: cell-based; conditions: 1 μM, 72 hours, n=3, M ± S.E.
Protocol: Normal human newborn foreskin dermal fibroblasts (Fibrocell NHDF (NB)) provided from Kurabo Industries, Ltd., were cultured to confluency at […] (DMEM 10% FBS). Twenty-four hours after replacing the medium with (serum-free) DMEM, the medium was replaced with DMEM (0.2% FBS), and Compound 1 (1 μM) and a solvent (DMSO) was added. The cells were cultured for 72 hours (n=3).
Cytokines in the culture were measured by ELISA, and prostaglandins were measured by EIA.
PGI2 was measured by using a degradation product of PGI2 (6-keto-PGF1α).

[7] = system: blood TXA2 concentration; conditions: MCT rat models; Am J Respir Crit Care Med 172, 1575-1580 (2005); cited from earlier work
[8] = cited from earlier work; remark: listed apart in the source
[9] = target: T1, TXA2 synthetase (Rattus norvegicus, UniProt P49430); assay: Dose completely inhibiting TXA2 synthetase; assay type: in vivo; conditions: oral dose
T1 construct: endogenous in cells; host or cells: Whole animal dosed in vivo (rat inferred)
T1 sequence (P49430 1-533): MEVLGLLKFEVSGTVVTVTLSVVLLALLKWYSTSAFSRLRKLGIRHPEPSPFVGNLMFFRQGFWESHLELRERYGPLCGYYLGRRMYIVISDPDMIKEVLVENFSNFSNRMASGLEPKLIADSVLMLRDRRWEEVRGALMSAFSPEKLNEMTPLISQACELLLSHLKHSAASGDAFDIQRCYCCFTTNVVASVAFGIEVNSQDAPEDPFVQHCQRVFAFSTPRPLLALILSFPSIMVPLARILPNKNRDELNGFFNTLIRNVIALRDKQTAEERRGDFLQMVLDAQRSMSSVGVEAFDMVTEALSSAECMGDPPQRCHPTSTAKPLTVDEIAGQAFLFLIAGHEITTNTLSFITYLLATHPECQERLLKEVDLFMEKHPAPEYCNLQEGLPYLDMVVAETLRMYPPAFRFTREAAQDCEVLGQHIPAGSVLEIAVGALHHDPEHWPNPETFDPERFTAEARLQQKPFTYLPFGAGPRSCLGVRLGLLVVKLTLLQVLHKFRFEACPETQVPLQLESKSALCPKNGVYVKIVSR

Q: Which results are given for `CC#CC[C@@H](C)[C@H](O)/C=C/[C@@H]1[C@H]2c3cccc(CCCC(=O)[O-])c3O[C@H]2C[C@H]1O.[Na+]` (racemic) [Compound 3, sodium (±)-(1R,2R,3aS,8bS)-2,3,3a,8b-tetrahydro-2-hydroxy-1-[(E)-(3S,4RS)-3-hydroxy-4-methyl-1-octen-6-ynyl]-1H-cyclopenta[b]benzofuran-5-butanoate]?
A: combined effect with a PDEV inhibitor (sildenafil) [1]: synergistic effect; efficacy administered alone [1]: efficacious; survival rate vs medium-administered group [2]: no survival prolongation effect; MTD ([3]; Slc:Wistar, rat, in vivo, read-out: maximum tolerated dose that does not show blood-pressure-lowering effect): 0.1 mg/kg; long-term effects ([4]; after 1 year): no significant difference; exercise tolerance ([4]; relatively short-term (after 12 weeks)): improved

Q: For `O=C(O)COc1cccc2c1CCC=C2CCO/N=C(\c1ccccc1)c1cccnc1` [Compound 1, (E)-[5-[2-[1-phenyl-1-(3-pyridyl)methylideneaminooxy]ethyl]-7,8-dihydronaphthalen-1-yloxy]acetic acid], which “average concentration in lung tissue” value ([5]; Group 3: Preparation Example 1 single i.v. 1 mg/kg) is on record?
A: 76.35 ng/g

Q: And the “average concentration in lung tissue” value ([5]; Group 4: Preparation Example 1 single s.c. 1 mg/kg)?
A: 0.659 ng/g

Q: What about the “concentration in lung tissue, intravenous compared to subcutaneous injection” value ([5]; i.v. 1 mg/kg vs s.c. 1 mg/kg) of the same compound?
A: about 120 fold

Q: And the “ratio of Group 3 to Group 4, concentration in lung tissue” value ([5]; i.v. 1 mg/kg vs s.c. 1 mg/kg)?
A: 115.9

Q: And the “Concentration of Compound 1 in the tissue” value ([5]; Group 3 (1 mg/kg) of Preparation Example 1)?
A: 50.0 ng/g and 99.2 ng/g and 45.2 ng/g and 111 ng/g

Q: And the “Concentration of Compound 1 in the tissue” value ([5]; Group 4 (1 mg/kg) as printed, Preparation Example 1)?
A: 1.06 ng/g and 0.258 ng/g

Q: What about the “6-keto-PGF1α (PGI2)” value [6] of the same compound?
A: 44.5 ± 4.014 pg/mL

Q: What about the G-CSF [6] of the same compound?
A: 28.71 ± 6.110 pg/mL

Q: And the HGF [6]?
A: 102.60 ± 15.658 pg/mL

Q: And the HMGB1 [6]?
A: 1.480 ± 0.147 ng/mL

Q: And the PGE2 [6]?
A: 38.1 ± 6.392

Q: What about the SDF-1α [6] of the same compound?
A: 2457.46 ± 231.884 pg/mL

Q: And the VEGF [6]?
A: 38.44 ± 11.857 pg/mL

Q: And the “blood TXA2 concentration” value [7]?
A: inhibits an increase

Q: Which results are given for `CCCC[C@H](C)C[C@H](O)/C=C/[C@H]1[C@H](O)CC(=O)[C@@H]1CC(=O)CCCCC(=O)OC` [Compound 7, 17S,20-dimethyl-6-oxo-prostaglandin E1 methyl ester]?
A: survival rate vs medium-administered group [2]: no survival prolongation effect; maximum tolerated dose that does not show blood-pressure-lowering effect [3]: 0.1 mg/kg

Q: What does the source list for `CCCCC[C@H](O)/C=C/[C@@H]1[C@H]2C/C(=C/CCCC(=O)O)O[C@H]2C[C@H]1O` [Epoprostenol sodium, reference compound]?
A: blood TXA2 concentration [7]: further increases; half-life [8]: about 6 minutes

Q: With `O=C(O)/C=C/c1ccc(Cn2ccnc2)cc1` [ozagrel hydrochloride] as the compound, how does the “survival rate vs medium-administered group” value [2] read?
A: no survival prolongation effect

Q: What about the “amount that completely inhibits the TXA2 synthetase” value [9] of the same compound?
A: 100 mg/kg
